Measured values: patent US5686637A, “Antifungal agent” (Merck & Co., Inc., priority 1995, dated 1997)
In brackets after ≈: the same amount, converted by molar mass. Like-named read-outs stand apart in the source and are kept apart here.

Tests used:
[1] = tested on: Candida albicans (MY 1055); experiment: microbroth dilution assay (MIC/MFC), Candida albicans (MY 1055); type: cell-based; conditions: for MIC: read-out: Minimum Inhibitory Concentration (MIC); for MFC: read-out: Minimum Fungicidal Concentration (MFC)
Description: (§1) In the microbroth dilution assay, microorganisms were selected by streaking a yeast culture on Sabouraud dextrose agar (SDA) incubating for 24-48 hours at 35°-37° C., thereafter selected 3 to 5 characteristic colonies and transferring to a fresh plate and incubating under similar conditions. From the regrowth, 3 to 5 colonies were selected and suspended in. 10 milliliters of YM broth (Dffco) and incubated for 4 hours at 35°-37° C. shaking at 225 rpm. The 4 hour broth cultures were adjusted optically to 86% transmission resulting in a concentration of 1-5×10^6 cfu/ml which was further diluted 1:100 in YNBD (yeast nitrogen base with 1% dextrose) to obtain a concentration of 1-5×10^4 cfu/ml for use as inocula.
(§2) The test compound, Compound I, was prepared as a stock solution of 128 μg/ml in 20% methanol and 75 μl of said solution delivered to each well in column 1 of a 96-well, U-bottomed microtiter plate. The compounds in column 1 were then serially diluted two-fold to yield concentrations from 32 μg/ml to 0.15 μg/ml.
(§3) Amphotericin, the control compound, was prepared as a stock solution of 512 μg/ml in 10% DMSO and 75 μl of said solution delivered to each well in column 1 of a 96-well, U-bottomed microtiter plate. The compounds in column 1 were then serially diluted two-fold to yield concentrations from 128 μg/ml to 0.6 μg/ml.
(§4) The plates containing the diluted compounds were then inoculated with 75 μl/well of the appropriate microorganism and incubated for 48 hours at 35°-37° C. with MIC (minimum inhibitory concentration) determinations carried out after 24 hours of incubation. Growth and sterility controls for each organism and sterility checks for the compounds also were carded out.
(§5) After recording MICs at 24 hours, the microtiter plates were shaken gently to resuspend the cells. A 1.5 μl sample was transferred from each well of the 96-well microtiter plate to a single reservoir inoculum plate containing SDA. The inoculated SDA and corresponding microtiter plates were incubated for 24 hours at 35°-37° C. For Cryptococus neoformans, SDA plates were inoculated at 48 hours after recording MICs and incubated 48 hours before reading the MFC. MFC is the lowest concentration of compound at which either no growth or growth of ≤4 colonies occur.

C. albicans (CA2) = experiment: microbroth dilution assay (MIC/MFC), C. albicans (CA2); type: cell-based; conditions: Candida albicans; for MIC: read-out: Minimum Inhibitory Concentration (MIC); for MFC: read-out: Minimum Fungicidal Concentration (MFC)
Description: as §1, §2, §3, §4, §5

C. albicans (CLY539) = experiment: microbroth dilution assay (MIC/MFC), C. albicans (CLY539); type: cell-based; conditions: Candida albicans; for MIC: read-out: Minimum Inhibitory Concentration (MIC); for MFC: read-out: Minimum Fungicidal Concentration (MFC)
Description: as §1, §2, §3, §4, §5

[2] = tested on: C. guillermondii (MY 1019); experiment: microbroth dilution assay (MIC/MFC), C. guillermondii (MY 1019); type: cell-based; conditions: for MIC: read-out: Minimum Inhibitory Concentration (MIC); for MFC: read-out: Minimum Fungicidal Concentration (MFC)
Description: as §1, §2, §3, §4, §5

[3] = tested on: C. parapsilosis (MY 1010); experiment: microbroth dilution assay (MIC/MFC), C. parapsilosis (MY 1010); type: cell-based; conditions: Lodderomyces parapsilosis; for MIC: read-out: Minimum Inhibitory Concentration (MIC); for MFC: read-out: Minimum Fungicidal Concentration (MFC)
Description: as §1, §2, §3, §4, §5

[4] = tested on: C. pseudotropicalis (MY 2099); experiment: microbroth dilution assay (MIC/MFC), C. pseudotropicalis (MY 2099); type: cell-based, Candida pseudotropicalis; conditions: Kluyveromyces marxianus; for MIC: read-out: Minimum Inhibitory Concentration (MIC); for MFC: read-out: Minimum Fungicidal Concentration (MFC)
Description: as §1, §2, §3, §4, §5

C. glabrata (MY1381) = experiment: microbroth dilution assay (MIC/MFC), C. glabrata (MY1381); type: cell-based; conditions: Nakaseomyces glabratus; for MIC: read-out: Minimum Inhibitory Concentration (MIC); for MFC: read-out: Minimum Fungicidal Concentration (MFC)
Description: as §1, §2, §3, §4, §5

C. topicalis (MY1012) = experiment: microbroth dilution assay (MIC/MFC), C. topicalis (MY1012); type: cell-based; conditions: for MIC: read-out: Minimum Inhibitory Concentration (MIC); for MFC: read-out: Minimum Fungicidal Concentration (MFC)
Description: as §1, §2, §3, §4, §5

C. tropicalis (MY1124) = experiment: microbroth dilution assay (MIC/MFC), C. tropicalis (MY1124); type: cell-based; conditions: Candida tropicalis; for MIC: read-out: Minimum Inhibitory Concentration (MIC); for MFC: read-out: Minimum Fungicidal Concentration (MFC)
Description: as §1, §2, §3, §4, §5

[5] = tested on: Cryptococcus neoformans (MY 2062); experiment: microbroth dilution assay (MIC), Cryptococcus neoformans (MY 2062); type: cell-based; conditions: 24 h, read-out: Minimum Inhibitory Concentration (MIC)
Description: as §1
(§6) The test compound, Compound I, was prepared as a stock solution of 128 μg/ml in 20% methanol and 75 μl of said solution delivered to each well in column 1 of a 96-well, U-bottomed microtiter plate. The compounds in column 1 were then serially diluted two-fold to yield concentrations from 32 μg/ml to 0.15 μg/ml. […]
(§7) After recording MICs at 24 hours, the microtiter plates were shaken gently to resuspend the cells. […] For Cryptococus neoformans, SDA plates were inoculated at 48 hours after recording MICs and incubated 48 hours before reading the MFC. […]

[6] = tested on: Saccharomyces cerevisiae (MY 2140); experiment: microbroth dilution assay (MIC/MFC), Saccharomyces cerevisiae (MY 2140); type: cell-based; conditions: for MIC: read-out: Minimum Inhibitory Concentration (MIC); for MFC: read-out: Minimum Fungicidal Concentration (MFC)
Description: as §1, §2, §3, §4, §5

[7] = tested on: Aspergillus fumigatus (MF 4839); experiment: microbroth dilution assay (MIC), Aspergillus fumigatus (MF 4839); type: cell-based; conditions: 24 h, read-out: Minimum Inhibitory Concentration (MIC)
Description: as §1, §6, §7

A. fumigatus (5668) = experiment: microbroth dilution assay (MIC), A. fumigatus (5668); type: cell-based; conditions: Aspergillus fumigatus, 24 h, read-out: Minimum Inhibitory Concentration (MIC)
Description: as §1, §6, §7

panel of fungi = experiment: broth microdilution assay against a panel of fungi; type: cell-based; conditions: MIC and MFC
Description: as §1, §6, §7

[8] = tested on: filamentous fungi (AspergiIlus fiavus, Fusarium oxysporum, usalago zeae and the like); experiment: agar plate inhibition zone test, filamentous fungi; type: cell-based; conditions: agar plates, methanol solutions, 28° C. or 37° C., 24 hours
Description: Compound I is also useful for inhibiting the growth of filamentous fungi. Such use may be illustrated in the following tests with AspergiIlus fiavus, Fusarium oxysporum, usalago zeae and the like. Inocula for filamentous fungi are prepared by scraping the surface of stock plates maintained on potato dextrose agar with a moistened sterile dacron swab. The spores and mycelia are then suspended in 10 milliliters of sterile potato dextrose broth and adjusted to 70 percent transmission at 660 nm. The samples to be tested for production of antifungal agent are applied directly to the agar plates as methanol solutions. When the sample to be tested is crude broth, it may be centrifuged prior to application. The assay plates are then incubated at either 28° C. or 37° C. for 24 hours. Following incubation, the inhibition zones are measured. Growths are also noted as to appearance.

S. cerevisiae (MY 2141) = experiment: microbroth dilution assay (MIC/MFC), S. cerevisiae (MY 2141); type: cell-based; conditions: Saccharomyces cerevisiae
Description: as §1, §6, §7

CCCCCCCCCCC(C)C(O)C(C)/C=C(C)/C=C(\C)C(=O)C(C)/C=C(\C)C(=O)OC(CO)C(O)C(O)C(=O)O (centres unmarked) [Compound I]
MIC ([1]; Candida albicans (MY 1055), 24 h, 35°-37° C.): 2 µg/mL (≈ 3.35 µM) | MFC ([1]; Candida albicans (MY 1055), no growth or ≤4 colonies on SDA after 24 h): 2 µg/mL (≈ 3.35 µM) | MIC (C. albicans (CA2); C. albicans (CA2), 24 h, 35°-37° C.): 2 µg/mL (≈ 3.35 µM) | MFC (C. albicans (CA2); C. albicans (CA2), no growth or ≤4 colonies on SDA after 24 h): 2 µg/mL (≈ 3.35 µM) | MIC (C. albicans (CLY539); C. albicans (CLY539), 24 h, 35°-37° C.): 2 µg/mL (≈ 3.35 µM) | MFC (C. albicans (CLY539); C. albicans (CLY539), no growth or ≤4 colonies on SDA after 24 h): 2 µg/mL (≈ 3.35 µM) | MIC ([2]; C. guillermondii (MY 1019), 24 h, 35°-37° C.): 4 µg/mL (≈ 6.7 µM) | MFC ([2]; C. guillermondii (MY 1019), no growth or ≤4 colonies on SDA after 24 h): 16 µg/mL (≈ 26.8 µM) | MIC ([3]; C. parapsilosis (MY 1010), 24 h, 35°-37° C.): 2 µg/mL (≈ 3.35 µM) | MFC ([3]; C. parapsilosis (MY 1010), no growth or ≤4 colonies on SDA after 24 h): 2 µg/mL (≈ 3.35 µM) | MIC ([4]; C. pseudotropicalis (MY 2099), 24 h, 35°-37° C.): 1 µg/mL (≈ 1.68 µM) | MFC ([4]; C. pseudotropicalis (MY 2099), no growth or ≤4 colonies on SDA after 24 h): 1 µg/mL (≈ 1.68 µM) | MIC (C. glabrata (MY1381); C. glabrata (MY1381), 24 h, 35°-37° C.): 4 µg/mL (≈ 6.7 µM) | MFC (C. glabrata (MY1381); C. glabrata (MY1381), no growth or ≤4 colonies on SDA after 24 h): 4 µg/mL (≈ 6.7 µM) | MIC (C. topicalis (MY1012); C. topicalis (MY1012), 24 h, 35°-37° C.): 1 µg/mL (≈ 1.68 µM) | MFC (C. topicalis (MY1012); C. topicalis (MY1012), no growth or ≤4 colonies on SDA after 24 h): 0.5 µg/mL (≈ 0.838 µM) | MIC (C. tropicalis (MY1124); C. tropicalis (MY1124), 24 h, 35°-37° C.): 2 µg/mL (≈ 3.35 µM) | MFC (C. tropicalis (MY1124); C. tropicalis (MY1124), no growth or ≤4 colonies on SDA after 24 h): 2 µg/mL (≈ 3.35 µM) | MIC ([5]; Cryptococcus neoformans (MY 2062), 35°-37° C., SDA plates inoculated at 48 hours after recording MICs): 2 µg/mL (≈ 3.35 µM) | MIC ([6]; Saccharomyces cerevisiae (MY 2140), 24 h, 35°-37° C.): 4 µg/mL (≈ 6.7 µM) | MFC ([6]; Saccharomyces cerevisiae (MY 2140), no growth or ≤4 colonies on SDA after 24 h): 4 µg/mL (≈ 6.7 µM) | MIC ([7]; Aspergillus fumigatus (MF 4839), 35°-37° C.): > 32 µg/mL | MIC (A. fumigatus (5668); A. fumigatus (5668), 35°-37° C.): > 32 µg/mL | effective concentrations against a panel of fungi compared with amphotericin B (panel of fungi): effective at concentrations comparable to an established antifungal agent, amphotericin B | inhibition of growth of fungal organisms (inhibition zones) [8]: effectively inhibit growth of the fungal organisms

C[C@@H]1[C@H](O)[C@@H](C)/C=C/C=C/C=C/C=C/C=C/C=C/C=C/[C@H](O[C@@H]2O[C@H](C)[C@@H](O)[C@H](N)[C@@H]2O)C[C@@H]2O[C@](O)(C[C@@H](O)C[C@@H](O)[C@H](O)CC[C@@H](O)C[C@@H](O)CC(=O)O[C@H]1C)C[C@H](O)[C@H]2C(=O)O [Amphotericin B]
MFC ([1]; Candida albicans, 24 h): 1 µg/mL (≈ 1.08 µM) | MIC ([1]; Candida albicans, 24 h): 1 µg/mL (≈ 1.08 µM) | MFC (C. albicans (CA2); 24 h): 1 µg/mL (≈ 1.08 µM) | MIC (C. albicans (CA2); 24 h): 1 µg/mL (≈ 1.08 µM) | MFC (C. albicans (CLY539); 24 h): 2 µg/mL (≈ 2.16 µM) | MIC (C. albicans (CLY539); 24 h): 1 µg/mL (≈ 1.08 µM) | MFC ([2]; 24 h): 2 µg/mL (≈ 2.16 µM) | MIC ([2]; 24 h): 1 µg/mL (≈ 1.08 µM) | MFC ([3]; 24 h): 1 µg/mL (≈ 1.08 µM) | MIC ([3]; 24 h): 1 µg/mL (≈ 1.08 µM) | MFC ([4]; 24 h): 2 µg/mL (≈ 2.16 µM) | MIC ([4]; 24 h): 2 µg/mL (≈ 2.16 µM) | MFC (C. glabrata (MY1381); 24 h): 2 µg/mL (≈ 2.16 µM) | MIC (C. glabrata (MY1381); 24 h): 2 µg/mL (≈ 2.16 µM) | MFC (C. topicalis (MY1012); 24 h): 16 µg/mL (≈ 17.3 µM) | MIC (C. topicalis (MY1012); 24 h): 16 µg/mL (≈ 17.3 µM) | MFC (C. tropicalis (MY1124); 24 h): 2 µg/mL (≈ 2.16 µM) | MIC (C. tropicalis (MY1124); 24 h): 2 µg/mL (≈ 2.16 µM) | MIC ([5]; Cryptococcus neoformans): 1 µg/mL (≈ 1.08 µM) | MFC ([6]; Saccharomyces cerevisiae, 24 h): 1 µg/mL (≈ 1.08 µM) | MIC ([6]; Saccharomyces cerevisiae, 24 h): 1 µg/mL (≈ 1.08 µM) | MIC (S. cerevisiae (MY 2141); 24 h, 35°-37° C., read-out: Minimum Inhibitory Concentration (MIC)): 1 µg/mL (≈ 1.08 µM) | MFC (S. cerevisiae (MY 2141); no growth or ≤4 colonies on SDA after 24 h, read-out: Minimum Fungicidal Concentration (MFC)): 1 µg/mL (≈ 1.08 µM) | MIC ([7]; Aspergillus fumigatus): 2 µg/mL (≈ 2.16 µM) | MIC (A. fumigatus (5668)): 2 µg/mL (≈ 2.16 µM)
